Test results reported in publication PMC10967270, “Intrapulmonary and Systemic Pharmacokinetics of Colistin Following Nebulization of Low-Dose Colistimethate Sodium in Patients with Ventilator-Associated Pneumonia Caused by Carbapenem-Resistant Acinetobacter baumannii” (Antibiotics, 2024).

System: ventilator-associated pneumonia caused by carbapenem-resistant Acinetobacter baumannii
Experiment: Clinical and microbiological outcomes of CMS nebulization
Type: in vivo
Conditions: of 20 patients
Description: Patients were treated with CMS (Xellia Pharmaceuticals ApS, Copenhagen, Denmark) at a total of 3.75 MIU (equivalent to 300 mg of CMS or 112.5 mg of CBA) administered four times a day at 6 h intervals. CMS was dissolved in 5 mL of normal saline and administered over 30 min through a jet nebulizer (Sileo 54, Macjin Medical, Seoul, Republic of Korea) connected to the ventilator circuit. Bronchoalveolar lavage fluid (BALF) was obtained by instilling 20 mL of normal saline into the right middle lobe or left lingular segmental bronchus using a bronchoscope, followed by immediate aspiration and collection into a syringe. Samples were collected immediately before the nebulization treatment and at 1, 3, and 5 h after the start of the treatment. Blood samples were collected before the nebulization treatment and at 1, 2, 3, and 5 h thereafter. Both BALF and blood samples were centrifuged at 3000× g for 10 min within 1 h of collection and the supernatant was isolated. Samples were then stored in a refrigerator at a temperature below −70 °C.
Clinical outcomes were classified as cured (resolution of symptoms/signs of pneumonia plus improvement or lack of progression in radiologic pulmonary infiltrates, and antibiotics-free), improved (significant improvement of symptoms/signs of pneumonia plus improvement or lack of progression in radiologic abnormalities, but remaining on antibiotic treatment), and failed (persistent or worsening of symptoms/signs of pneumonia, persistent or progression of radiologic pulmonary infiltrates that required additional antibiotic therapy, or death).

Colistimethate sodium [CMS] was tested, and the “Clinical outcomes: failed, number of patients” value (nebulized CMS 3.75 MIU/day) was 4, the “Microbiologic outcomes: eradication, number of patients” value (nebulized CMS 3.75 MIU/day) was 8 and the “Microbiologic outcomes: indeterminate, number of patients” value (nebulized CMS 3.75 MIU/day) was 2. The “Microbiologic outcomes: persistence, number of patients” value (nebulized CMS 3.75 MIU/day) was 10, the “Survival: no, number of patients” value (nebulized CMS 3.75 MIU/day) was 15 and the “Survival: yes, number of patients” value (nebulized CMS 3.75 MIU/day) was 5. The “Clinical outcomes: cured, number of patients” value (nebulized CMS 3.75 MIU/day in four doses at 6 h intervals) was 16.
